Values quoted from earlier work in patent US20150313913A1, “POSITIVE ALLOSTERIC MODULATORS OF THE GABA-A RECEPTOR IN THE TREATMENT OF AUTISM” (UNIVERSITY OF WASHINGTON THROUGH ITS CENTER FOR …, priority 2013, published 2015).
Where two headings read alike, the source gives them in different places.

Tests used:
GABA-A receptor = conditions: cited from earlier work; for Effect at GABA-A receptor: Table 1, exemplary benzodiazepines
[1] = cited from earlier work; for Dose in humans for anti-anxiety, anti-convulsive, or sedative effects (dose range, typical or average dose): Table 1, values not marked *; for Dose in humans for anti-anxiety, anti-convulsive, or sedative effects, per day: Table 1, typical daily dose
[2] = Table 4, exemplary non-BDZ GABA-A enhancers

| SMILES | Effect at GABA-A receptor (GABA-A receptor) | Dose in humans for anti-anxiety, anti-convulsive, or sedative effects: equivalent dose to 10 mg diazepam ([1]; Table 1, values marked *) | further results |
| --- | --- | --- | --- |
| Cc1nnc2n1-c1ccc(Cl)cc1C(c1ccccc1)=NC2 [Alprazolam] | Full agonist |  | Dose in humans for anti-anxiety, anti-convulsive, or sedative effects (dose range, typical or average dose) [1]: dose range of 0.5 to 3.0 mg |
| CN(C(=O)CNC(=O)[C@@H](N)CCCCN)c1ccc(Cl)cc1C(=O)c1ccccc1 [Avizafone] | Full agonist |  | Dose in humans for anti-anxiety, anti-convulsive, or sedative effects ([1]; Table 1): 3.5 mg/kg |
| CC(C)(C)OC(=O)c1ncn2c1[C@@H]1CCCN1C(=O)c1c(Br)cccc1-2 [Bretazenil] | Partial Agonist High potency | 0.5 mg |  |
| O=C1CN=C(c2ccccn2)c2cc(Br)ccc2N1 [Bromazepam] | Agonist | 5 to 6 mg |  |
| Cc1nnc2n1-c1sc(Br)cc1C(c1ccccc1Cl)=NC2 [Brotizolam] | Agonist | 0.25 mg | Dose in humans, sedative ([1]; Table 1, Sedative): 0.125 to 25 mg; Dose in humans, anti-anxiety ([1]; Table 1, anti-anxiety): 80 to 100 mg |
| CNC1=Nc2ccc(Cl)cc2C(c2ccccc2)=[N+]([O-])C1 [Chlordiazepoxide] | Agonist Long- acting | 25 mg |  |
| N#CCCN1C(=O)C(O)N=C(c2ccccc2F)c2cc(Cl)ccc21 (centres unmarked) [Cinolazepam] | Agonist | 40 mg |  |
| O=C(O)C1N=C(c2ccccc2)c2cc(Cl)ccc2NC1=O (centres unmarked) [Clorazepate] | Partial Agonist (Prodrug) | 15 mg | Dose in humans for anti-anxiety, anti-convulsive, or sedative effects, per day [1]: 15 to 60 mg/day |
| CCc1cc2c(s1)N(C)C(=O)CN=C2c1ccccc1Cl [Clotiazepam] | Full agonist | 5 to 10 mg |  |
| O=C1CN2CCOC2(c2ccccc2Cl)c2cc(Cl)ccc2N1 (centres unmarked) [Cloxazolam] | Agonist (Prodrug) | 1 mg |  |
| O=C1CN=C(c2ccccc2Cl)c2cc(Cl)ccc2N1 [Delorazepam] | Agonist | 1 mg |  |
| CN1C(=O)CN=C(c2ccccc2)c2cc(Cl)ccc21 [Diazepam] | Agonist Long- acting | 10 mg | dose typically administered to achieve an anxiolytic or anti-convulsive effect ([1]; 2-4 times daily): 2 to 10 mg |
| Clc1ccc2c(c1)C(c1ccccc1)=NCc1nncn1-2 [Estazolam] | Agonist | 2 mg |  |
| CN1CCN(C(=O)O[C@H]2c3nccnc3C(=O)N2c2ccc(Cl)cn2)CC1 [Eszopiclone] |  |  | Effect at GABA receptor (GABA-A receptor; [2]): Agonist; Dose in humans for anti-anxiety, anti-convulsive, or sedative effects: equivalent dose to 10 mg diazepam ([1]; Table 4, values marked *): 3 mg |
| CCOC(=O)C1N=C(c2ccccc2F)c2cc(Cl)ccc2NC1=O (centres unmarked) [Ethyl loflazepate] | Agonist (Prodrug) | 2 mg |  |
| CCc1cc2c(s1)-n1c(C)nnc1CN=C2c1ccccc1Cl [Etizolam] | Full agonist | 0.5 to 1 mg |  |
| CN1C(=O)CN=C(c2ccccc2F)c2cc([N+](=O)[O-])ccc21 [Flunitrazepam] | Agonist | 1 mg |  |
| CCN(CC)CCN1C(=O)CN=C(c2ccccc2F)c2cc(Cl)ccc21 [Flurazepam] | Partial agonist | 15 to 30 mg |  |
| O=C1CN=C(c2ccccc2F)c2cc(Cl)ccc2N1CC1CC1 [Flutoprazepam] | Agonist | 2 to 3 mg |  |
| CP(C)(=O)CN1C(=O)CN=C(c2ccccc2)c2cc(Cl)ccc21 [Fosazepam] | Agonist Low potency | 60 mg |  |
| O=C1CN=C(c2ccccc2)c2cc(Cl)ccc2N1CC(F)(F)F [Halazepam] | Agonist | 20 to 40 mg |  |

| SMILES | Effect at GABA-A receptor (GABA-A receptor) | Dose in humans for anti-anxiety, anti-convulsive, or sedative effects: equivalent dose to 10 mg diazepam ([1]; Table 1, values marked *) | further results |
| --- | --- | --- | --- |
| CC1=CC(=O)N2CC(=O)N(C)c3ccc(Cl)cc3C2(c2ccccc2)O1 (centres unmarked) [Ketazolam] | Agonist | 15 to 30 mg |  |
| CN1CCN(/C=C2\N=C3CN=C(c4ccccc4Cl)c4cc([N+](=O)[O-])ccc4N3C2=O)CC1 [Loprazolam] | Agonist | 2 mg | Dose in humans for anti-anxiety, anti-convulsive, or sedative effects (dose range, typical or average dose) [1]: 1 to 2 mg |
| O=C1Nc2ccc(Cl)cc2C(c2ccccc2Cl)=NC1O (centres unmarked) [Lorazepam] | Agonist High- potency | 1 mg |  |
| CN1C(=O)C(O)N=C(c2ccccc2Cl)c2cc(Cl)ccc21 (centres unmarked) [Lormetazepam] | Agonist Short- acting | 1.5 mg |  |
| CN1CCN=C(c2ccccc2)c2cc(Cl)ccc21 [Medazepam] | Agonist Long- acting | 10 mg |  |
| Cc1ncc2n1-c1ccc(Cl)cc1C(c1ccccc1F)=NC2 [Midazolam] | Agonist Short- acting | 7.5 mg |  |
| CN1C(=O)CN=C(c2ccccc2)c2cc([N+](=O)[O-])ccc21 [Nimetazepam] | Agonist | 5 mg |  |
| O=C1CN=C(c2ccccc2)c2cc([N+](=O)[O-])ccc2N1 [Nitrazepam] | Full agonist Long- acting | 10 mg |  |
| O=C1CN=C(c2ccccc2)c2cc(Cl)ccc2N1 [Nordazepam] | Partial agonist | 10 mg |  |
| O=C1Nc2ccc(Cl)cc2C(c2ccccc2)=NC1O (centres unmarked) [Oxazepam] | Agonist Short- acting | 20 mg | Dose in humans, mild/moderate anxiety ([1]; Table 1, 1 to 2 times daily): 10 to 15 mg; Dose in humans, severe anxiety ([1]; Table 1, 3 to 4 times daily): 15 to 30 mg; Dose in humans, symptoms related to alcohol withdrawal ([1]; Table 1, 3 to 4 times daily): 15 to 30 mg |
| O=C1CN=C(c2ccccc2Cl)c2cc(Br)ccc2N1 [Phenazepam] | Agonist | 1 mg | Dose in humans for anti-anxiety, anti-convulsive, or sedative effects (dose range, typical or average dose) [1]: 0.5 mg |
| C#CCN1C(=O)CN=C(c2ccccc2)c2cc(Cl)ccc21 [Pinazepam] | Agonist | 20 mg |  |
| O=C1CN=C(c2ccccc2)c2cc(Cl)ccc2N1CC1CC1 [Prazepam] | Agonist (Prodrug) | 20 mg |  |
| Cc1c2c(cn1C)NC(=O)CN=C2c1ccccc1 [Premazepam] | Partial agonist | 15 mg |  |
| Cc1nnc2n1-c1ccc(Br)cc1C(c1ccccn1)=NC2 [Pyrazolam] | Agonist | 1 mg |  |
| CN1C(=O)C(O)N=C(c2ccccc2)c2cc(Cl)ccc21 (centres unmarked) [Temazepam] | Agonist | 20 mg |  |
| CN1C(=O)CN=C(C2=CCCCC2)c2cc(Cl)ccc21 [Tetrazepam] | Agonist | 100 mg | Dose in humans for anti-anxiety, anti-convulsive, or sedative effects, per day [1]: 50 to 300 mg/day |
| CCC1C(C)=NN=C(c2ccc(OC)c(OC)c2)c2cc(OC)c(OC)cc21 (centres unmarked) [Tofisopam] | Agonist |  | Dose in humans for anti-anxiety, anti-convulsive, or sedative effects, per day [1]: Typical dose 50- 300 mg/day in divided doses |
| CCN(C(C)=O)c1cccc(-c2ccnc3c(C#N)cnn23)c1 [Zaleplon] |  |  | Effect at GABA receptor (GABA-A receptor; Table 2, exemplary SS-PAMs): Full agonist α1 selective Acts on α2,3 at higher doses Ultra short- acting; Dose in humans for anti-anxiety, anti-convulsive, or sedative effects (marked *) ([1]; Table 2): 20 mg |
| CN1CCN(C(=O)OC2c3nccnc3C(=O)N2c2ccc(Cl)cn2)CC1 (centres unmarked) [Zopiclone] |  |  | Effect at GABA receptor (GABA-A receptor; [2]): Full agonist; Dose in humans for anti-anxiety, anti-convulsive, or sedative effects: equivalent dose to 10 mg diazepam ([1]; Table 4, values marked *): 15 mg |
